Reference: ChEMBL document CHEMBL1201862, “PubChem BioAssay data set” (2004)
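Five concentrations, 48 hours, 96-well plates. GI50 is the concentration that inhibits growth by half.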 Calls of active or inactive are those of the source. No stated cut-off is given here; in the data, active = GI50 up to about 1.1 µM and inactive = higher.

How the values were obtained:
Assay in all cases: NCI tumour cell line growth inhibition, 48 h
UO-31 = system: UO-31
UACC-62 = system: UACC-62
NCI-H522 = system: NCI-H522
T47D = system: T47D
HOP-62 = system: HOP-62
OVCAR-4 = system: OVCAR-4
DU-145 = system: DU-145
SF-539 = system: SF-539
SK-OV-3 = system: SK-OV-3
HCT-116 = system: HCT-116
SF-295 = system: SF-295
PC-3 = system: PC-3
CCRF-CEM = system: CCRF-CEM
SN12C = system: SN12C
BT-549 = system: BT-549
HCC 2998 = system: HCC 2998
Malme-3M = system: Malme-3M
M14 = system: M14
OVCAR-5 = system: OVCAR-5
KM12 = system: KM12

SMILES	GI50 (UO-31)	GI50 (UACC-62)	GI50 (NCI-H522)	GI50 (T47D)	GI50 (HOP-62)	GI50 (OVCAR-4)	GI50 (DU-145)	GI50 (SF-539)	GI50 (SK-OV-3)	GI50 (HCT-116)	GI50 (SF-295)	GI50 (PC-3)	GI50 (CCRF-CEM)	GI50 (SN12C)	GI50 (BT-549)	GI50 (HCC 2998)	GI50 (Malme-3M)	GI50 (M14)	GI50 (OVCAR-5)	GI50 (KM12)
O=c1[nH]nc(Cc2ccccc2)n1/N=C\CC/C=N\n1c(Cc2ccccc2)n[nH]c1=O	> 100 µM (inactive)	16.8 µM (inactive)	61.1 µM (inactive)	30.9 µM (inactive)	22.1 µM (inactive)	48.8 µM (inactive)	43.5 µM (inactive)	19 µM (inactive)	31.3 µM (inactive)	18.5 µM (inactive)	39.1 µM (inactive)	37.4 µM (inactive)	12.5 µM (inactive)	> 100 µM (inactive)	25.8 µM (inactive)	53.8 µM (inactive)	24.7 µM (inactive)	44.9 µM (inactive)	> 100 µM (inactive)	> 100 µM (inactive)
CN(C)CCNc1ccc2nnn3c4ccc(O)cc4c(=O)c1c23	2.22 µM (inactive)	4.74 µM (inactive)	3.12 µM (inactive)	11.1 µM (inactive)	1.39 µM (inactive)	2.08 µM (inactive)	6.31 µM (inactive)	3.95 µM (inactive)	3.72 µM (inactive)	1.35 µM (inactive)	2.54 µM (inactive)	1.46 µM (inactive)	1.11 µM (active)	1.85 µM (inactive)	15.2 µM (inactive)	5.48 µM (inactive)	5.05 µM (inactive)	7.59 µM (inactive)	4.41 µM (inactive)	2.32 µM (inactive)
